The source of these data is patent US20250152585A1, “PHARMACEUTICAL COMPOUND” (Duke Street Bio Limited, priority 2022, published 2025).

Test [1] addresses T1, N-terminally FLAG-tagged PARP2 (amino acids 1-583) (Homo sapiens, UniProt Q9UGN5).
T1 construct: N-terminally FLAG-tagged PARP2 (amino acids 1-583)
Description: PARP2 probe displacement HTRF assay. The class given is binding. The settings on record: binned Kd, PARP2 probe displacement HTRF. The procedure: Data analysis was performed identical as for PARP1.

Test [2] has as its target T2, full length N-terminally FLAG-tagged PARP1 (Homo sapiens, UniProt P09874). In words: PARP1 probe displacement HTRF assay. The conditions noted are these: for Selectivity: PARP1 over PARP2, ratio Kd (PARP2)/Kd (PARP1), probe displacement HTRF; for Kd: binned Kd, PARP1 probe displacement HTRF. A general note: TR-FRET usually uses a lanthanide donor and a delayed reading to cut background.

In test [3] the target is T2, full length N-terminally FLAG-tagged PARP1. In words: PARP1 biochemical DELFIA assay (auto-PARylation). The arrangement: recombinant full length human N-terminally FLAG-tagged PARP1. The settings on record: binned IC50, PARP1 biochemical DELFIA assay.

Each structure is given as a SMILES string. Read-outs that look alike come from different tables or passages of the source. A value given as a limit tells only on which side of the number the result lay.

T2 sequence (P09874 whole entry): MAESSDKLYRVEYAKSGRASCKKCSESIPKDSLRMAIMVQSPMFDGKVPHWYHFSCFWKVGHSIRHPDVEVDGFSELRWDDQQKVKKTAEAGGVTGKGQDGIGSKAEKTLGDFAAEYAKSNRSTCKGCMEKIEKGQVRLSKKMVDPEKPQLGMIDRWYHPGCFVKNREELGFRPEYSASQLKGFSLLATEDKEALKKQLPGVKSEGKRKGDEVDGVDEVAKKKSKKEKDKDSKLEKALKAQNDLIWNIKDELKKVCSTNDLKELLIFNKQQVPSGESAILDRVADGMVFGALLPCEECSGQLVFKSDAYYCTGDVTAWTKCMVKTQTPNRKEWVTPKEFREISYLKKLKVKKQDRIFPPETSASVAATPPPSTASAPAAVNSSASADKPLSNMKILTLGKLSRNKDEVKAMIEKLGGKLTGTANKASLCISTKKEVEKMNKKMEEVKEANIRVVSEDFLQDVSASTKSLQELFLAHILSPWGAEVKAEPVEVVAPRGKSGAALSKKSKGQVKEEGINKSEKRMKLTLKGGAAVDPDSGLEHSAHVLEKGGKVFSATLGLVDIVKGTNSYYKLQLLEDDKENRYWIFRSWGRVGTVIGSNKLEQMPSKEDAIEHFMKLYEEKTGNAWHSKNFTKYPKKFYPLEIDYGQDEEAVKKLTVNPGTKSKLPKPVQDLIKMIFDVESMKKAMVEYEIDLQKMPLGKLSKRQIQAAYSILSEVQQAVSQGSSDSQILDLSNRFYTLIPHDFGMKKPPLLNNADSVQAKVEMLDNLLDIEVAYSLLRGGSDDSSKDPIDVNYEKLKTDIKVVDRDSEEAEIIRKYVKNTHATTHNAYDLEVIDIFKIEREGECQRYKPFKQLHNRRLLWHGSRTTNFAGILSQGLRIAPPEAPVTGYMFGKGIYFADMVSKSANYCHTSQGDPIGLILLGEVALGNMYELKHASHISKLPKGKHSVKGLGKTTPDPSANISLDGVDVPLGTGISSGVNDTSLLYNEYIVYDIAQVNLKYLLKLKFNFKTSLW
T1 sequence (Q9UGN5 whole entry, the tested form may be a part): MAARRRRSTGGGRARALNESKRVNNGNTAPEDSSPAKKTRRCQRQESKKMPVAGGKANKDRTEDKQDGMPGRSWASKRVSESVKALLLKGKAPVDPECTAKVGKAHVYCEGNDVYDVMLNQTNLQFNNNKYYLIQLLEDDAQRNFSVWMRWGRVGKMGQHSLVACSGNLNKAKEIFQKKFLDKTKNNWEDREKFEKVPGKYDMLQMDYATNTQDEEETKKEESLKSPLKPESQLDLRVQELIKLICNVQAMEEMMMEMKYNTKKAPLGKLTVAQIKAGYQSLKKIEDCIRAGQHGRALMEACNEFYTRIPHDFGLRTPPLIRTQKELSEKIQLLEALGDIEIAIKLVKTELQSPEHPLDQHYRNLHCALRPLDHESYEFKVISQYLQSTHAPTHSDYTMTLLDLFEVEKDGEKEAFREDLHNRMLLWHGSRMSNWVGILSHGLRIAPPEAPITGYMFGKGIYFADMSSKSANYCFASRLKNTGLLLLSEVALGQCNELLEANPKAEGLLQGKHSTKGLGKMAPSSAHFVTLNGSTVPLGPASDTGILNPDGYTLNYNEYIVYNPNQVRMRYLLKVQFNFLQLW

`CNC(=O)c1ccc(N2CCC(N3CCC(c4nc5ccccc5c(=O)[nH]4)C3)CC2)c(C(F)F)n1` (single isomer, unassigned) [Compound 158b]: the Kd was in the range of 1000 to 10000 nM in test [1] and 10 to 100 nM in test [2] (read-out: PARP1 HTRF). In addition, the Selectivity result in test [2] is given as “+++ (+++ indicate a value of at least 100)”. In addition, the IC50 in test [3] was in the range of 10 to 100 nM.
As for `CNC(=O)c1ccc(N2CCC(N3CCCC(c4nc5onc(C)c5c(=O)[nH]4)C3)CC2)cn1` (single isomer, unassigned) [Compound 159a], the Kd in test [1] and in test [2] (read-out: PARP1 HTRF) was above 10000 nM each time. In test [2], the Selectivity entry was “− (− indicates a value of less than 10)”. Also, the IC50 in test [3] was above 10000 nM.
Turning to `CNC(=O)c1ccc(N2CCC(N3CCCC(c4nc5onc(C)c5c(=O)[nH]4)C3)CC2)cn1` (single isomer, unassigned) [Compound 159b], the Kd in test [1] was above 10000 nM; in test [2] (read-out: PARP1 HTRF), 100 to 1000 nM. Also, in test [2], the Selectivity entry was “+ (+ indicates a value of 10 to less than 50)”. In addition, in test [3], the IC50 lay within 100 to 1000 nM.
As to `CNC(=O)c1ccc(N2CCC(N3CCC(c4nc5ccc(C(F)(F)F)cc5c(=O)[nH]4)C3)CC2)cn1` (single isomer, unassigned) [Compound 161a], the Kd was above 10000 nM in test [1] and 100 to 1000 nM in test [2] (read-out: PARP1 HTRF). Besides, in test [2], the Selectivity entry is “− (− indicates a value of less than 10)”. Moreover, the IC50 in test [3] lay in the range of 100 to 1000 nM.
Turning to `CNC(=O)c1ccc(N2CCC(N3CCC(c4nc5ccc(C(F)(F)F)cc5c(=O)[nH]4)C3)CC2)cn1` (single isomer, unassigned) [Compound 161b], the Kd was 1000 to 10000 nM in test [1] and below 10 nM in test [2] (read-out: PARP1 HTRF). Further, in test [2], the Selectivity result is “+++ (+++ indicate a value of at least 100)”. For the same compound, in test [3], the IC50 was below 10 nM.
Regarding `CNC(=O)c1ccc(N2CCC(N3CCC(c4nc5[nH]nc(C(F)(F)F)c5c(=O)[nH]4)C3)CC2)cn1` (single isomer, unassigned) [Compound 162a, N-methyl-5-(4-(3-(4-oxo-3-(trifluoromethyl)-4,5-dihydro-1H-pyrazolo[3,4-d]pyrimidin-6-yl)pyrrolidin-1-yl)piperidin-1-yl)picolinamide], the figures for the Kd in test [1] and in test [2] (PARP1 HTRF) were 100 to 1000 nM and 10 to 100 nM, respectively. For the same compound, the Selectivity result in test [2] is on record as “− (− indicates a value of less than 10)”. Besides, the IC50 in test [3] is 10 to 100 nM.
For the compound `CNC(=O)c1ccc(N2CCC(N3CCC(c4nc5[nH]nc(C(F)(F)F)c5c(=O)[nH]4)C3)CC2)cn1` (single isomer, unassigned) [Compound 162b, N-methyl-5-(4-(3-(4-oxo-3-(trifluoromethyl)-4,5-dihydro-1H-pyrazolo[3,4-d]pyrimidin-6-yl)pyrrolidin-1-yl)piperidin-1-yl)picolinamide], the Kd is 10 to 100 nM in test [1] and below 10 nM in test [2] (PARP1 HTRF). In test [2], the Selectivity entry is reported as “++ (++ indicates a value of 50 to less than 100)”. The IC50 in test [3] is below 10 nM.
As for `CCc1ccc(C2CCN(C3CCN(c4ccc(C(=O)NC)nc4C(F)F)CC3)C2)[nH]c1=O` (single isomer, unassigned) [Compound 164a], the Kd in test [1] was 1000 to 10000 nM; in test [2] (read-out: PARP1 HTRF) it was below 10 nM. The Selectivity entry in test [2] is given as “+++ (+++ indicate a value of at least 100)”. Further, the IC50 in test [3] is below 10 nM.
For the compound `CCc1ccc(C2CCN(C3CCN(c4ccc(C(=O)NC)nc4C(F)F)CC3)C2)[nH]c1=O` (single isomer, unassigned) [Compound 164b], the Kd is above 10000 nM in test [1] and 10 to 100 nM in test [2] (read-out: PARP1 HTRF). In test [2], the Selectivity result is “+++ (+++ indicate a value of at least 100)”. For the same compound, the IC50 in test [3] was in the range of 10 to 100 nM.
For `CCc1ccc(C2CCN(C3CCN(c4ccc(C(=O)NCCF)nc4)CC3)C2)[nH]c1=O` (single isomer, unassigned) [Compound 165a], the Kd in test [1] is 100 to 1000 nM; in test [2] (read-out: PARP1 HTRF) it was below 10 nM. Moreover, the Selectivity result in test [2] is reported as “+++ (+++ indicate a value of at least 100)”. Further, the IC50 in test [3] was below 10 nM.
On to `CCc1ccc(C2CCN(C3CCN(c4ccc(C(=O)NCCF)nc4)CC3)C2)[nH]c1=O` (single isomer, unassigned) [Compound 165b], for which the Kd in test [1] was in the range of 1000 to 10000 nM; in test [2] (read-out: PARP1 HTRF) it was 10 to 100 nM. The Selectivity entry in test [2] is given as “+++ (+++ indicate a value of at least 100)”. In addition, in test [3], the IC50 was in the range of 10 to 100 nM.
As for `CNC(=O)c1ccc(N2CCC(N3CCC(c4cc5c(C(F)(F)F)cccc5c(=O)[nH]4)C3)CC2)cn1` (single isomer, unassigned) [Compound 167a], the Kd was above 10000 nM in test [1] and 10 to 100 nM in test [2] (read-out: PARP1 HTRF). Moreover, in test [2], the Selectivity result is recorded as “++ (++ indicates a value of 50 to less than 100)”. For the same compound, the IC50 in test [3] was 10 to 100 nM.
Turning to `CNC(=O)c1ccc(N2CCC(N3CCC(c4cc5c(C(F)(F)F)cccc5c(=O)[nH]4)C3)CC2)cn1` (single isomer, unassigned) [Compound 167b], the Kd in test [1] is 100 to 1000 nM; in test [2] (read-out: PARP1 HTRF) it was below 10 nM. For the same compound, in test [2], the Selectivity result is reported as “+++ (+++ indicate a value of at least 100)”. Further, the IC50 in test [3] was below 10 nM.
Take `CNC(=O)c1ccc(N2CCC(N3CCCC(c4ccc(CC(F)(F)F)c(=O)[nH]4)C3)CC2)cn1` (single isomer, unassigned) [Compound 169a]: the Kd in test [1] and in test [2] (read-out: PARP1 HTRF) was above 10000 nM throughout. Moreover, the Selectivity result in test [2] was “− (− indicates a value of less than 10)”. Further, in test [3], the concentration for half-maximal inhibition (IC50) fell in the range of 1000 to 10000 nM.
As for `CNC(=O)c1ccc(N2CCC(N3CCCC(c4ccc(CC(F)(F)F)c(=O)[nH]4)C3)CC2)cn1` (single isomer, unassigned) [Compound 169b], the Kd in test [1] is above 10000 nM; in test [2] (read-out: PARP1 HTRF), 10 to 100 nM. Also, the Selectivity result in test [2] is on record as “+++ (+++ indicate a value of at least 100)”. Moreover, the IC50 in test [3] was below 10 nM.
Regarding `CNC(=O)c1ccc(N2CCC(N3CCC(c4nc5c(c(C(F)(F)F)cn5C)c(=O)[nH]4)C3)CC2)cn1` (single isomer, unassigned) [Compound 170a], the Kd in test [1] and in test [2] (read-out: PARP1 HTRF) was below 10 nM throughout. Besides, the Selectivity entry in test [2] is reported as “− (− indicates a value of less than 10)”. The IC50 in test [3] was below 10 nM.
Regarding `CNC(=O)c1ccc(N2CCC(N3CCC(c4nc5c(c(C(F)(F)F)cn5C)c(=O)[nH]4)C3)CC2)cn1` (single isomer, unassigned) [Compound 170b], the Kd in test [1] and in test [2] (read-out: PARP1 HTRF) was below 10 nM each time. In test [2], the Selectivity entry is recorded as “− (− indicates a value of less than 10)”. Further, in test [3], the IC50 was below 10 nM.
Take `CNC(=O)c1ccc(N2CCC(N3CCC(c4cc5c(F)cccc5c(=O)[nH]4)C3)CC2)cn1` (single isomer, unassigned) [Compound 172a]: the Kd was 1000 to 10000 nM in test [1] and below 10 nM in test [2] (read-out: PARP1 HTRF). Moreover, in test [2], the Selectivity result is on record as “+++ (+++ indicate a value of at least 100)”. In addition, the half-maximal inhibitory concentration (IC50) in test [3] is below 10 nM.
With `CNC(=O)c1ccc(N2CCC(N3CCC(c4cc5c(F)cccc5c(=O)[nH]4)C3)CC2)cn1` (single isomer, unassigned) [Compound 172b], the Kd is 10 to 100 nM in test [1] and below 10 nM in test [2] (read-out: PARP1 HTRF). In test [2], the Selectivity entry is given as “+++ (+++ indicate a value of at least 100)”. Besides, the concentration for half-maximal inhibition (IC50) in test [3] is below 10 nM.
As for `CNC(=O)c1ccc(N2CCC(N3CCC(c4nc5onc(C(F)(F)F)c5c(=O)[nH]4)C3)CC2)cn1` (single isomer, unassigned) [Compound 176a], the figures for the Kd in test [1] and in test [2] (read-out: PARP1 HTRF) were above 10000 nM and 100 to 1000 nM, respectively. Further, the Selectivity entry in test [2] is “+ (+ indicates a value of 10 to less than 50)”. In test [3], the IC50 is 100 to 1000 nM.
Turning to `CNC(=O)c1ccc(N2CCC(N3CCC(c4nc5onc(C(F)(F)F)c5c(=O)[nH]4)C3)CC2)cn1` (single isomer, unassigned) [Compound 176b], the Kd in test [1] was above 10000 nM; in test [2] (read-out: PARP1 HTRF), 100 to 1000 nM. Also, the Selectivity entry in test [2] is recorded as “++ (++ indicates a value of 50 to less than 100)”. Moreover, the IC50 in test [3] lay within 10 to 100 nM.
For `CNC(=O)c1ccc(N2CCC(N3CCC(c4cc5c(F)ccc(F)c5c(=O)[nH]4)C3)CC2)cn1` (single isomer, unassigned) [Compound 180a], the Kd was 1000 to 10000 nM in test [1] and below 10 nM in test [2] (read-out: PARP1 HTRF). Besides, in test [2], the Selectivity result was “+++ (+++ indicate a value of at least 100)”. Also, the IC50 in test [3] was below 10 nM.
Turning to `CNC(=O)c1ccc(N2CCC(N3CCC(c4nc5c(F)cc(F)cc5c(=O)[nH]4)C3)CC2)cn1` (single isomer, unassigned) [Compound 181a], the Kd in test [1] is 100 to 1000 nM; in test [2] (read-out: PARP1 HTRF), 10 to 100 nM. Moreover, in test [2], the Selectivity result is “+ (+ indicates a value of 10 to less than 50)”. In addition, the IC50 in test [3] lay within 10 to 100 nM.
In the case of `CNC(=O)c1ccc(N2CCC(N3CCC(c4nc5c(F)cc(F)cc5c(=O)[nH]4)C3)CC2)cn1` (single isomer, unassigned) [Compound 181b], the Kd in test [1] was 100 to 1000 nM; in test [2] (read-out: PARP1 HTRF), below 10 nM. Moreover, the Selectivity result in test [2] is “+++ (+++ indicate a value of at least 100)”. Moreover, the IC50 in test [3] is below 10 nM.
In the case of `CNC(=O)c1ccc(N2CCC(N3CCC(c4nc5c(F)ccc(F)c5c(=O)[nH]4)C3)CC2)cn1` (single isomer, unassigned) [Compound 182a], the figures for the Kd in test [1] and in test [2] (read-out: PARP1 HTRF) were 100 to 1000 nM and 10 to 100 nM, respectively. Also, the Selectivity result in test [2] is given as “+ (+ indicates a value of 10 to less than 50)”. Further, the IC50 in test [3] was 10 to 100 nM.
Turning to `CNC(=O)c1ccc(N2CCC(N3CCC(c4nc5c(F)ccc(F)c5c(=O)[nH]4)C3)CC2)cn1` (single isomer, unassigned) [Compound 182b], the Kd in test [1] was 100 to 1000 nM; in test [2] (read-out: PARP1 HTRF), below 10 nM. Moreover, in test [2], the Selectivity entry is “+++ (+++ indicate a value of at least 100)”. Besides, in test [3], the IC50 was below 10 nM.

In general, IC50 refers to the concentration that gives 50% inhibition.
